Reference: US7709471B2, “Compounds” (AstraZeneca AB, priority 2006, dated 2010)
Read-outs that look alike come from different tables or passages of the source.

Key:
[1] = target: recombinant Plk1 (Homo sapiens, UniProt P53350); assay: In Vitro Plk1 Enzyme Assay (SPA, GST-Cdc25C phosphorylation); type: biochemical; settings: ATP 64 nM, 90 minutes, read-out: IC50 (Plk1 enzyme inhibition)
[2] = test system: human colon tumour cell line HT29; assay: Cellular Assay (phosphohistone H3 Ser10 mitotic marker, HT29); type: cell-based; settings: HT-29, 24 h, HT29 cells
[3] = read-out: IC50 (cellular assay, phosphohistone H3)

recombinant Plk1, sequence (P53350 whole entry): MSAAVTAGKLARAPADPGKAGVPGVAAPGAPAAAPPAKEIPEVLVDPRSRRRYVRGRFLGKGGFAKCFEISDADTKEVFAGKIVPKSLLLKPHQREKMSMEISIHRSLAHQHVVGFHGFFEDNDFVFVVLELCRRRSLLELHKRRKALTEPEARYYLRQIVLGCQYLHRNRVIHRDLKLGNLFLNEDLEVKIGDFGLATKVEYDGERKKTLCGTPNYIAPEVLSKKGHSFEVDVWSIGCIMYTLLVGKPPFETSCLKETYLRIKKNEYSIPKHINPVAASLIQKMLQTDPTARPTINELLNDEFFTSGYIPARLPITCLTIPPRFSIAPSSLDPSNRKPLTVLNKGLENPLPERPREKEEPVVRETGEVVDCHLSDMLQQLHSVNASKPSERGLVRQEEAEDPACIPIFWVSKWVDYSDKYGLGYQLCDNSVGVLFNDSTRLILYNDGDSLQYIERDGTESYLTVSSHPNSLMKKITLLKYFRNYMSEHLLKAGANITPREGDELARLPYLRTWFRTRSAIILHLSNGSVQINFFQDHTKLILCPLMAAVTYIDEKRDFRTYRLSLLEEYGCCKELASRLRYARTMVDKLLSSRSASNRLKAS

| Compound | IC50 [1] [nM] | IC50 ([2]; read-out: Cell IC50) [nM] | IC50 [2, 3] [nM] |
| --- | --- | --- | --- |
| COc1cc(C(=O)NC2CCN(C)CC2)ccc1Nc1ncc2c(n1)N(C1CCCC1)CCCN2C [Example 4, 4-[(2-Cyclopentyl-6-methyl-2,6,9,11-tetrazabicyclo[5.4.0]undeca-8,10,12-trien-10-yl)amino]-3-methoxy-N-(1-methyl-4-piperidyl)benzamide] | < 100000 |  | < 1000 |
| COc1cc(C(=O)NC(C)C)ccc1Nc1ncc2c(n1)N(C1CCCC1)CCC(=O)N2C [Example 95, 4-[(6-cyclopentyl-2-methyl-3-oxo-2,6,8,10-tetrazabicyclo[5.4.0]undeca-8,10,12-trien-9-yl)amino]-3-methoxy-N-propan-2-yl-benzamide] | < 1000 |  | < 300 |
| COc1cc(C(=O)N[C@@H]2CCN(C(=O)OC(C)(C)C)C2)ccc1Nc1ncc2c(n1)N(C1CCCC1)CCC(=O)N2C [Example 52, tert-butyl (3R)-3-[[4-[(6-cyclopentyl-2-methyl-3-oxo-2,6,8,10-tetrazabicyclo[5.4.0]undeca-8,10,12-trien-9-yl)amino]-3-methoxy-benzoyl]amino]pyrrolidine-1-carboxylate] | < 1000 |  | < 300 |
| CN1C(=O)CCN(C2CCCC2)c2nc(Nc3ccc(S(N)(=O)=O)cc3)ncc21 [Example 123, 4-[(6-cyclopentyl-2-methyl-3-oxo-2,6,8,10-tetrazabicyclo[5.4.0]undeca-8,10,12-trien-9-yl)amino]benzenesulfonamide] | < 100000 |  | < 30000 |
| COc1cc(C(=O)NC2CCN(C)CC2)ccc1Nc1ncc2c(n1)N(CCC(C)C)CCC(=O)N2C [Example 7, 3-Methoxy-4-[[6-methyl-2-(3-methylbutyl)-5-oxo-2,6,9,11-tetrazabicyclo[5.4.0]undeca-7,9,11-trien-10-yl]amino]-N-(1-methyl-4-piperidyl)benzamide] | < 1000 |  | < 1000 |
| COc1cc(C(=O)NC2CN3CCC2CC3)ccc1Nc1ncc2c(n1)N(C(C)C)CCC(=O)N2C (centres unmarked) [Example 206, N-(1-azabicyclo[2.2.2]oct-8-yl)-3-methoxy-4-[(2-methyl-3-oxo-6-propan-2-yl-2,6,8,10-tetrazabicyclo[5.4.0]undeca-7,9,11-trien-9-yl)amino]benzamide] | < 300 |  | < 300 |
| CCN(CC)CCCNC(=O)c1ccc(Nc2ncc3c(n2)N(C2CCCC2)CCC(=O)N3C)c(OC)c1 [Example 78, 4-[(6-cyclopentyl-2-methyl-3-oxo-2,6,8,10-tetrazabicyclo[5.4.0]undeca-8,10,12-trien-9-yl)amino]-N-(3-diethylaminopropyl)-3-methoxy-benzamide] | < 300 |  | < 300 |
| CN(C)c1ccc(Nc2ncc3c(n2)N(C2CCCC2)CCC(=O)N3C)cc1 [Example 122, 6-cyclopentyl-9-[(4-dimethylaminophenyl)amino]-2-methyl-2,6,8,10-tetrazabicyclo[5.4.0]undeca-8,10,12-trien-3-one] | < 100000 |  | < 30000 |
| COc1cc(OC2CCN(C)C2)ccc1Nc1ncc2c(n1)N(C1CCCC1)CCC(=O)N2C (centres unmarked) [Example 114, 6-cyclopentyl-9-[[2-methoxy-4-(1-methylpyrrolidin-3-yl)oxy-phenyl]amino]-2-methyl-2,6,8,10-tetrazabicyclo[5.4.0]undeca-8,10,12-trien-3-one] | < 300 |  | < 1000 |

Second part, the compound after the results:

| IC50 [1] [nM] | IC50 ([2]; read-out: Cell IC50) [nM] | IC50 [2, 3] [nM] | Compound |
| --- | --- | --- | --- |
| < 300 | 92 | < 300 | COc1cc(C(=O)NCCN(C)C)ccc1Nc1ncc2c(n1)N(C1CCCC1)CCC(=O)N2C [Example 14, 4-[(6-cyclopentyl-2-methyl-3-oxo-2,6,8,10-tetrazabicyclo[5.4.0]undeca-8,10,12-trien-9-yl)amino]-N-(2-dimethylaminoethyl)-3-methoxy-benzamide] |
| < 1000 |  | < 300 | CCN1CCC(NC(=O)c2ccc(Nc3ncc4c(n3)N(C3CCCC3)CC3(CC3)C(=O)N4C)c(OC)c2)CC1 [Example 383, 4-(9′-cyclopentyl-5′-methyl-6′-oxo-5′,6′,8′,9′-tetrahydrospiro[cyclopropane-1,7′-pyrimido[5,4-b][1,4]diazepine]-2′-ylamino)-N-(1-ethyl-4-piperidyl)-3-methoxy-benzamide] |
| < 300 |  | < 300 | COc1cc(C(=O)NCCCCN2CCCC2)ccc1Nc1ncc2c(n1)N(C1CCCC1)CCC(=O)N2C [Example 33, 4-[(6-cyclopentyl-2-methyl-3-oxo-2,6,8,10-tetrazabicyclo[5.4.0]undeca-8,10,12-trien-9-yl)amino]-3-methoxy-N-(4-pyrrolidin-1-ylbutyl)benzamide] |
| < 300 |  | < 300 | CC(C)N1CCC(=O)N(C)c2cnc(Nc3ccc(C(=O)NC4CCN(C)CC4)cc3Cl)nc21 [Example 203, 3-chloro-4-[(2-methyl-3-oxo-6-propan-2-yl-2,6,8,10-tetrazabicyclo[5.4.0]undeca-7,9,11-trien-9-yl)amino]-N-(1-methyl-4-piperidyl)benzamide] |
| < 300 |  | < 30000 | COc1cc(C(=O)NC2CCN(C)CC2)ccc1Nc1ncc2c(n1)N(c1ccccc1)CCC(=O)N2C [Example 221, 3-methoxy-4-[(2-methyl-3-oxo-6-phenyl-2,6,8,10-tetrazabicyclo[5.4.0]undeca-8,10,12-trien-9-yl)amino]-N-(1-methyl-4-piperidyl)benzamide] |
| < 1000 |  | < 1000 | CCOc1cc(C(=O)NC2CCN(CC)CC2)ccc1Nc1ncc2c(n1)N(C(C)C)CCC(=O)N2C [Example 282, 3-ethoxy-N-(1-ethyl-4-piperidyl)-4-[(6-methyl-5-oxo-2-propan-2-yl-2,6,9,11-tetrazabicyclo[5.4.0]undeca-7,9,11-trien-10-yl)amino]benzamide] |
| < 1000 |  | < 300 | COc1cc(C(=O)NC2CCCCC2)ccc1Nc1ncc2c(n1)N(C1CCCC1)CCC(=O)N2C [Example 90, N-cyclohexyl-4-[(6-cyclopentyl-2-methyl-3-oxo-2,6,8,10-tetrazabicyclo[5.4.0]undeca-8,10,12-trien-9-yl)amino]-3-methoxy-benzamide] |
| < 100000 |  | < 30000 | Cc1ccc(Oc2ccccc2Nc2ncc3c(n2)N(C2CCCC2)CCC(=O)N3C)cc1 [Example 159, 6-cyclopentyl-2-methyl-9-[[2-(4-methylphenoxy)phenyl]amino]-2,6,8,10-tetrazabicyclo[5.4.0]undeca-8,10,12-trien-3-one] |
| < 300 |  | < 300 | COc1cc(C(=O)N[C@@H]2CCNC2)ccc1Nc1ncc2c(n1)N(C1CCCC1)CCC(=O)N2C [Example 55, 4-[(6-cyclopentyl-2-methyl-3-oxo-2,6,8,10-tetrazabicyclo[5.4.0]undeca-8,10,12-trien-9-yl)amino]-3-methoxy-N-[(3R)-pyrrolidin-3-yl]benzamide] |
| < 300 |  | < 300 | COc1cc(C(=O)NCCCN2CCN(C)CC2)ccc1Nc1ncc2c(n1)N(C1CCCC1)CCC(=O)N2C [Example 20, 4-[(6-cyclopentyl-2-methyl-3-oxo-2,6,8,10-tetrazabicyclo[5.4.0]undeca-8,10,12-trien-9-yl)amino]-3-methoxy-N-[3-(4-methylpiperazin-1-yl)propyl]benzamide] |
| < 300 |  | < 300 | CN1C(=O)CCN(C2CCCC2)c2nc(Nc3cc(F)c(C(=O)N[C@@H]4CCNC4)cc3Cl)ncc21 [Example 321, 5-chloro-4-[(2-cyclopentyl-6-methyl-5-oxo-2,6,9,11-tetrazabicyclo[5.4.0]undeca-7,9,11-trien-10-yl)amino]-2-fluoro-N-[(3R)-pyrrolidin-3-yl]benzamide] |
